# PubChem BioAssay (NCI)
#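 How tested: cells in 96-well plates exposed to compound for 48 hours at five concentrations. GI50: concentration for 50% inhibition of growth. TGI marks complete inhibition of growth.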
# Legend:
# Assay in all cases: NCI tumour cell line growth inhibition, 48 h
# 786-0 renal = test system: 786-0 renal
# A498 renal = test system: A498 renal
# A549 NSCLC = test system: A549 NSCLC
# ACHN renal = test system: ACHN renal
# BT-549 breast = test system: BT-549 breast
# CAKI-1 renal = test system: CAKI-1 renal
# CCRF-CEM leukemia = test system: CCRF-CEM leukemia
# COLO 205 colon = test system: COLO 205 colon
# DU-145 prostate = test system: DU-145 prostate
# EKVX NSCLC = test system: EKVX NSCLC
# HCC-2998 colon = test system: HCC-2998 colon
# HCT-116 colon = test system: HCT-116 colon
# HCT-15 colon = test system: HCT-15 colon
# HL-60(TB) leukemia = test system: HL-60(TB) leukemia
# HOP-62 NSCLC = test system: HOP-62 NSCLC
# HOP-92 NSCLC = test system: HOP-92 NSCLC
# HS 578T breast = test system: HS 578T breast
# HT29 colon = test system: HT29 colon
# IGROV1 ovarian = test system: IGROV1 ovarian
# K-562 leukemia = test system: K-562 leukemia
# KM12 colon = test system: KM12 colon
# LOX IMVI melanoma = test system: LOX IMVI melanoma
# M14 melanoma = test system: M14 melanoma
# MALME-3M melanoma = test system: MALME-3M melanoma
# MCF7 breast = test system: MCF7 breast
# MDA-MB-231 breast = test system: MDA-MB-231 breast
# MDA-MB-435 = test system: MDA-MB-435
# MDA-MB-468 breast = test system: MDA-MB-468 breast
# MOLT-4 leukemia = test system: MOLT-4 leukemia
# NCI-H226 lung = test system: NCI-H226 lung
# NCI-H23 lung = test system: NCI-H23 lung
# NCI-H460 lung = test system: NCI-H460 lung
# NCI-H522 lung = test system: NCI-H522 lung
# NCI/ADR-RES ovarian = test system: NCI/ADR-RES ovarian
# OVCAR-3 ovarian = test system: OVCAR-3 ovarian
# OVCAR-4 ovarian = test system: OVCAR-4 ovarian
# OVCAR-5 ovarian = test system: OVCAR-5 ovarian
# OVCAR-8 ovarian = test system: OVCAR-8 ovarian
# PC-3 prostate = test system: PC-3 prostate
# RPMI-8226 leukemia = test system: RPMI-8226 leukemia
# RXF 393 renal = test system: RXF 393 renal
# SF-268 CNS = test system: SF-268 CNS
# SF-295 CNS = test system: SF-295 CNS
# SF-539 CNS = test system: SF-539 CNS
# SK-MEL-2 melanoma = test system: SK-MEL-2 melanoma
# SK-MEL-28 melanoma = test system: SK-MEL-28 melanoma
# SK-MEL-5 melanoma = test system: SK-MEL-5 melanoma
# SK-OV-3 ovarian = test system: SK-OV-3 ovarian
# SN12C renal = test system: SN12C renal
# SNB-19 CNS = test system: SNB-19 CNS
# SNB-75 CNS = test system: SNB-75 CNS
# SR leukemia = test system: SR leukemia
# SW-620 colon = test system: SW-620 colon
# T-47D breast = test system: T-47D breast
# TK-10 renal = test system: TK-10 renal
# U251 CNS = test system: U251 CNS
# UACC-257 melanoma = test system: UACC-257 melanoma
# UACC-62 melanoma = test system: UACC-62 melanoma
# UO-31 renal = test system: UO-31 renal
smiles,measurement,setting,value
O=C(CNc1nc(-c2ccccc2)cs1)Nc1ccc(Cl)cc1[N+](=O)[O-],GI50,786-0 renal,3.75 µM
same,TGI,786-0 renal,14.2 µM
same,GI50,A498 renal,7.9 µM
same,TGI,A498 renal,20.4 µM
same,GI50,A549 NSCLC,3.93 µM
same,TGI,A549 NSCLC,14.5 µM
same,GI50,ACHN renal,2.77 µM
same,TGI,ACHN renal,10.5 µM
same,GI50,BT-549 breast,2.84 µM
same,TGI,BT-549 breast,5.89 µM
same,GI50,CAKI-1 renal,1.85 µM
same,TGI,CAKI-1 renal,9.85 µM
same,GI50,CCRF-CEM leukemia,3.29 µM
same,TGI,CCRF-CEM leukemia,> 100 µM
same,GI50,COLO 205 colon,2.61 µM
same,TGI,COLO 205 colon,5.91 µM
same,GI50,DU-145 prostate,4.78 µM
same,TGI,DU-145 prostate,18.7 µM
same,GI50,EKVX NSCLC,1.82 µM
same,TGI,EKVX NSCLC,9.71 µM
same,GI50,HCC-2998 colon,2.71 µM
same,TGI,HCC-2998 colon,10.2 µM
same,GI50,HCT-116 colon,2.95 µM
same,TGI,HCT-116 colon,10.2 µM
same,GI50,HCT-15 colon,1.98 µM
same,TGI,HCT-15 colon,4.53 µM
same,GI50,HL-60(TB) leukemia,2.03 µM
same,TGI,HL-60(TB) leukemia,6.56 µM
same,GI50,HOP-62 NSCLC,4.23 µM
same,TGI,HOP-62 NSCLC,17.3 µM
same,GI50,HOP-92 NSCLC,1.99 µM
same,TGI,HOP-92 NSCLC,8.19 µM
same,GI50,HS 578T breast,2.39 µM
same,TGI,HS 578T breast,9.58 µM
same,GI50,HT29 colon,3.79 µM
same,TGI,HT29 colon,14.4 µM
same,GI50,IGROV1 ovarian,2.9 µM
same,TGI,IGROV1 ovarian,12.1 µM
same,GI50,K-562 leukemia,2.49 µM
same,TGI,K-562 leukemia,> 100 µM
same,GI50,KM12 colon,3.36 µM
same,TGI,KM12 colon,13 µM
same,GI50,LOX IMVI melanoma,1.32 µM
same,TGI,LOX IMVI melanoma,2.88 µM
same,GI50,M14 melanoma,3.4 µM
same,TGI,M14 melanoma,12.7 µM
same,GI50,MALME-3M melanoma,2.21 µM
same,TGI,MALME-3M melanoma,5.51 µM
same,GI50,MCF7 breast,2.84 µM
same,TGI,MCF7 breast,10.3 µM
same,GI50,MDA-MB-231 breast,1.63 µM
same,TGI,MDA-MB-231 breast,3.54 µM
same,GI50,MDA-MB-435,3.25 µM
same,TGI,MDA-MB-435,9.42 µM
same,GI50,MDA-MB-468 breast,2.02 µM
same,TGI,MDA-MB-468 breast,5.69 µM
same,GI50,MOLT-4 leukemia,2.49 µM
same,TGI,MOLT-4 leukemia,13.9 µM
same,GI50,NCI-H226 lung,2.64 µM
same,TGI,NCI-H226 lung,13 µM
same,GI50,NCI-H23 lung,3.08 µM
same,TGI,NCI-H23 lung,12.6 µM
same,GI50,NCI-H460 lung,4.18 µM
same,TGI,NCI-H460 lung,17.5 µM
same,GI50,NCI-H522 lung,1.8 µM
same,TGI,NCI-H522 lung,3.95 µM
same,GI50,NCI/ADR-RES ovarian,2.31 µM
same,TGI,NCI/ADR-RES ovarian,6.53 µM
same,GI50,OVCAR-3 ovarian,2.36 µM
same,TGI,OVCAR-3 ovarian,5.72 µM
same,GI50,OVCAR-4 ovarian,3.26 µM
same,TGI,OVCAR-4 ovarian,13 µM
same,GI50,OVCAR-5 ovarian,2.49 µM
same,TGI,OVCAR-5 ovarian,8.24 µM
same,GI50,OVCAR-8 ovarian,3.25 µM
same,TGI,OVCAR-8 ovarian,13.1 µM
same,GI50,PC-3 prostate,2.78 µM
same,TGI,PC-3 prostate,16.2 µM
same,GI50,RPMI-8226 leukemia,2.67 µM
same,TGI,RPMI-8226 leukemia,> 100 µM
same,GI50,RXF 393 renal,1.99 µM
same,TGI,RXF 393 renal,6.5 µM
same,GI50,SF-268 CNS,2.1 µM
same,TGI,SF-268 CNS,7.08 µM
same,GI50,SF-295 CNS,2.71 µM
same,TGI,SF-295 CNS,11.1 µM
same,GI50,SF-539 CNS,1.84 µM
same,TGI,SF-539 CNS,4.05 µM
same,GI50,SK-MEL-2 melanoma,3.04 µM
same,TGI,SK-MEL-2 melanoma,9.74 µM
same,GI50,SK-MEL-28 melanoma,2.9 µM
same,TGI,SK-MEL-28 melanoma,8.79 µM
same,GI50,SK-MEL-5 melanoma,1.93 µM
same,TGI,SK-MEL-5 melanoma,4.26 µM
same,GI50,SK-OV-3 ovarian,4.65 µM
same,TGI,SK-OV-3 ovarian,19 µM
same,GI50,SN12C renal,2.81 µM
same,TGI,SN12C renal,10.7 µM
same,GI50,SNB-19 CNS,3.78 µM
same,TGI,SNB-19 CNS,15 µM
same,GI50,SNB-75 CNS,1.24 µM
same,TGI,SNB-75 CNS,7.02 µM
same,GI50,SR leukemia,3.75 µM
same,TGI,SR leukemia,> 100 µM
same,GI50,SW-620 colon,4.1 µM
same,TGI,SW-620 colon,14.4 µM
same,GI50,T-47D breast,2.46 µM
same,TGI,T-47D breast,8.61 µM
same,GI50,TK-10 renal,6.12 µM
same,TGI,TK-10 renal,17.9 µM
same,GI50,U251 CNS,2.06 µM
same,TGI,U251 CNS,6.56 µM
same,GI50,UACC-257 melanoma,5.13 µM
same,TGI,UACC-257 melanoma,17 µM
same,GI50,UACC-62 melanoma,1.33 µM
same,TGI,UACC-62 melanoma,3.25 µM
same,GI50,UO-31 renal,1.62 µM
same,TGI,UO-31 renal,6.97 µM
